The text below walks through data of patent publication US20260159536A1, “AKR1C3-ACTIVATED DNA ALKYLATING AGENT, AND MEDICAL APPLICATION THEREOF” (ASCENTAWITS PHARMACEUTICALS, LTD., priority 2021, published 2026).

Read-outs that look alike come from different tables or passages of the source.

One data set in a line: in vitro. Particulars: for metabolite AST-2660 detection: from Compound A. As for the experimental part:
(1) Compound A for test, progesterone positive control, and 100 mM stock solutions of AST-3021 inhibitor were prepared and stored in the freezer (−10° C. to −30° C.).
1) Negative control group: at different time points (0 and 60 min), 30 μL/well of hepatocyte cytosol suspension containing 7.5 μM of sample for test was distributed in a 96-well plate. Three replicate wells were prepared in parallel.
2) Positive control group: at different time points (0, 5, 15, 30, 45 and 60 min), 30 μL/well of hepatocyte cytosol suspension containing 7.5 μM of the positive control was distributed in a 96-well plate. Three replicate wells were prepared in parallel.
3) Normal reaction group: at different time points (0, 5, 15, 30, 45 and 60 min), 30 μL/well of hepatocyte cytosol suspension containing 7.5 μM of sample for test was distributed in a 96-well plate. Three replicate wells were prepared in parallel.
4) Inhibition reaction group: at different time points (0, 5, 15, 30, 45 and 60 min), 30 μL/well of hepatocyte cytosol suspension containing […] of sample for test and 4.5 μM of the inhibitor was distributed in a 96-well plate. Three replicate wells were prepared in parallel.
6) 0 min samples: after 150 μL/well of acetonitrile containing the internal standard was added, then 15 μL/well of pre-heated NADPH working solution was added to the samples of normal reaction group, inhibition reaction group and positive control group, and 15 μL/well of pre-heated potassium phosphate buffer was added to the samples of negative control group.
7) Other samples (5, 15, 30, 45 and 60 min): for normal reaction group, inhibition reaction group and positive control group, 15 μL/well of pre-heated NADPH working solution was added to start the reaction; for negative control group, 15 μL/well of pre-heated potassium phosphate buffer was added. The reaction plates were then continued to incubate in a 37° C. water bath and the reactions were stopped by the addition of 150 μL/well of stop solution at the corresponding time points (5, 15, 30, 45 and 60 min).
The concentration of analyte in each sample was expressed as a peak area ratio (peak area analyte/peak areainternal standard), then the peak area ratio at 0 min was used as a reference to calculate the % Remaining at each time point of the incubation, and the ln logarithmic value of the % Remaining was linearly fitted to the incubation time and the half-life was calculated according to the following formula.
In the absence of AST-3021, 5 μM of progesterone was co-incubated with 2 mM of NADPH and 1 mg/mL of hepatocyte cytosol for 0-60 min as a positive control.

Data set [1] deals with HuPrime model GA6201 human gastric cancer. Particulars: for Tumor volume: 60 mg/kg i.p. As to the method: The test was divided into groups of the test drug Isocyclophosphamide 60 mg/kg group, the test drug AST-3424 5 mg/kg group, the test drug A compound 2.5 mg/kg and 5 mg/kg groups, and normal saline (pH 7.0-7.6) vehicle control group, a total of 5 groups, with 5 mice per group.
In the above dosing regimen, Isocyclophosphamide was designed based on the best dosing regimen with maximum safe dosage as recited in the document (Jessica D. Sun, Qian Liu, Dharmendra Ahluwalia, Damien J. Ferraro, Yan Wang, Don Jung, Mark D. Matteucci, and Charles P. Hart. Comparison of hypoxia-activated prodrug evofosfamide (TH-302) and ifosfamide in preclinical non-small cell lung cancer models [J]. Cancer Biology & Therapy, 2016, 17(4): 371-380).

[2] abbreviates: 60 mg/kg i.p. 5 days on, 2 days off, 2 weeks, Day 38.

Consider `O=P(O)(N1CC1)N1CC1` [AST-2660], for which the “metabolite AST-2660 detection” value in “in vitro” (human, no NADPH, no AST-3021) is “not detected”; in “in vitro” (human, with NADPH), “a small amount”; in “in vitro” (human, with NADPH and AST-3021) it was “not detected”; in the data set “in vitro” (monkey, no NADPH, no AST-3021) it was “not detected”; in the data set “in vitro” (monkey, with NADPH), “a small amount”; in “in vitro” (monkey, with NADPH and AST-3021), “detected in only one monkey 60-min sample”. In addition, the “metabolite AST-2660 detection” value is “not detected” in the data set “in vitro” (mouse, no NADPH, no AST-3021); “not detected” in “in vitro” (mouse, with NADPH); “not detected” in “in vitro” (mouse, with NADPH and AST-3021); “not detected” in the data set “in vitro” (rat, no NADPH, no AST-3021); “not detected” in “in vitro” (rat, with NADPH); “not detected” in “in vitro” (rat, with NADPH and AST-3021).

As to `O=P1(NCCCl)OCCCN1CCCl` (centres unmarked) [Isocyclophosphamide, reference compound], the “Relative tumor volume (x ± S)” value in data set [1] (setting [2]) is 3.85 ± 0.63. The “T/C (%)” value in data set [1] (setting [2]) is on record as 41.17%. Also, the “TGI (%)” value in data set [1] (setting [2]) is 58.83%. Also, in data set [1] (setting [2]), the “Tumor volume (x ± S)” value was found to be 371.02 ± 75.96. Besides, the Tumor volume in data set [1] (0 day) is recorded as 94.15 mm^3; in data set [1] (3 days), 122.22 mm^3; in data set [1] (7 days), 129.39 mm^3; in data set [1] (10 days), 175.00 mm^3; in data set [1] (14 days), 190.74 mm^3; in data set [1] (17 days) it was 189.23 mm^3. Also, the Tumor volume is 217.96 mm^3 in data set [1] (21 days); 225.66 mm^3 in data set [1] (24 days); 247.04 mm^3 in data set [1] (28 days); 265.76 mm^3 in data set [1] (31 days); 324.51 mm^3 in data set [1] (35 days); 371.02 mm^3 in data set [1] (38 days). Moreover, the Tumor volume was found to be 403.47 mm^3 in data set [1] (42 days), 484.83 mm^3 in data set [1] (45 days) and 578.60 mm^3 in data set [1] (49 days).

`CC(=O)[C@H]1CC[C@H]2[C@@H]3CCC4=CC(=O)CC[C@]4(C)[C@H]3CC[C@]12C` [Progesterone]: the half-life (usually the time in which the quantity being followed falls by half) at 5 µM in the data set “in vitro” (CD-1, mouse, hepatocyte cytosol, Metabolic parameter t1/2, mouse, 2 mM NADPH, no AST-3021 (normal reaction / positive control group), 5 μM) came out at 37.7 min; in “in vitro” (SD, rat, hepatocyte cytosol, Metabolic parameter t1/2, rat, 2 mM NADPH, no AST-3021 (normal reaction / positive control group), 5 μM), 22.3 min; in “in vitro” (cynomolgus (printed as 'machins'), monkey, cytosol) it was 13.2 min. Further, the Metabolic parameter k in “in vitro” (human, 2 mM NADPH, no AST-3021 (normal reaction / positive control group), 5 μM) is on record as 0.0543; in “in vitro” (monkey, 2 mM NADPH, no AST-3021 (normal reaction / positive control group), 5 μM), 0.0525; in “in vitro” (mouse, 2 mM NADPH, no AST-3021 (normal reaction / positive control group), 5 μM), 0.0184; in “in vitro” (rat, 2 mM NADPH, no AST-3021 (normal reaction / positive control group), 5 μM), 0.0311. In addition, the “average % Remaining” value was 100.00% in the data set “in vitro” (human, 2 mM NADPH, no AST-3021 (normal reaction / positive control group), 5 μM, 0 min); 80.76% in “in vitro” (human, 2 mM NADPH, no AST-3021 (normal reaction / positive control group), 5 μM, 5 min); 55.69% in the data set “in vitro” (human, 2 mM NADPH, no AST-3021 (normal reaction / positive control group), 5 μM, 15 min); 20.59% in the data set “in vitro” (human, 2 mM NADPH, no AST-3021 (normal reaction / positive control group), 5 μM, 30 min); 7.72% in the data set “in vitro” (human, 2 mM NADPH, no AST-3021 (normal reaction / positive control group), 5 μM, 45 min); 0.46% in “in vitro” (human, 2 mM NADPH, no AST-3021 (normal reaction / positive control group), 5 μM, 60 min). For the same compound, the “average % Remaining” value turned out to be 100.00% in “in vitro” (monkey, 2 mM NADPH, no AST-3021 (normal reaction / positive control group), 5 μM, 0 min); 82.47% in “in vitro” (monkey, 2 mM NADPH, no AST-3021 (normal reaction / positive control group), 5 μM, 5 min); 59.82% in “in vitro” (monkey, 2 mM NADPH, no AST-3021 (normal reaction / positive control group), 5 μM, 15 min); 28.19% in “in vitro” (monkey, 2 mM NADPH, no AST-3021 (normal reaction / positive control group), 5 μM, 30 min); 10.01% in “in vitro” (monkey, 2 mM NADPH, no AST-3021 (normal reaction / positive control group), 5 μM, 45 min); 3.26% in the data set “in vitro” (monkey, 2 mM NADPH, no AST-3021 (normal reaction / positive control group), 5 μM, 60 min). The “average % Remaining” value was 100.00% in the data set “in vitro” (mouse, 2 mM NADPH, no AST-3021 (normal reaction / positive control group), 5 μM, 0 min); 89.61% in “in vitro” (mouse, 2 mM NADPH, no AST-3021 (normal reaction / positive control group), 5 μM, 5 min); 78.52% in “in vitro” (mouse, 2 mM NADPH, no AST-3021 (normal reaction / positive control group), 5 μM, 15 min); 62.61% in the data set “in vitro” (mouse, 2 mM NADPH, no AST-3021 (normal reaction / positive control group), 5 μM, 30 min); 44.84% in the data set “in vitro” (mouse, 2 mM NADPH, no AST-3021 (normal reaction / positive control group), 5 μM, 45 min); 31.03% in the data set “in vitro” (mouse, 2 mM NADPH, no AST-3021 (normal reaction / positive control group), 5 μM, 60 min). Further, the “average % Remaining” value was 100.00% in “in vitro” (rat, 2 mM NADPH, no AST-3021 (normal reaction / positive control group), 5 μM, 0 min); 84.80% in “in vitro” (rat, 2 mM NADPH, no AST-3021 (normal reaction / positive control group), 5 μM, 5 min); 69.77% in “in vitro” (rat, 2 mM NADPH, no AST-3021 (normal reaction / positive control group), 5 μM, 15 min); 45.51% in “in vitro” (rat, 2 mM NADPH, no AST-3021 (normal reaction / positive control group), 5 μM, 30 min); 21.61% in “in vitro” (rat, 2 mM NADPH, no AST-3021 (normal reaction / positive control group), 5 μM, 45 min); 4.70% in the data set “in vitro” (rat, 2 mM NADPH, no AST-3021 (normal reaction / positive control group), 5 μM, 60 min).
